Values quoted from earlier work in patent US20050220810A1, “Anti-aging preparation” (Shiseido Company, Ltd., priority 2002, published 2005).

Tested on: vascular endothelial cell HMVEC
Conditions: general statement on positive controls of TSP-1 induction; no test described

**Q.** For “bFGF: fibroblast growth factor, a positive control of the TSP-1 inducing substance”, which “induction of cell death in vascular endothelial cells” value is on record?
**A.** The value was “does not induce cell death”.
